Experimental data reported in ChEMBL document CHEMBL1146354, “Synthesis, cytotoxicity, and DNA topoisomerase II inhibitory activity of benzofuroquinolinediones” (Bioorg Med Chem, 2007).

Tested on: HCT-116
Assay: Cytotoxicity against human HCT116 cells by SRB assay
Type: functional, cell-based

Row | Structure (SMILES) | IC50
1 | CCN(CC)CCOc1ccc2c3c(oc2c1)C(=O)c1ncccc1C3=O | 60 nM
2 | CC(C)N(CCOc1cc2oc3c(c2cc1Cl)C(=O)c1cccnc1C3=O)C(C)C | 410 nM
3 | CC(COc1ccc2c3c(oc2c1)C(=O)c1ccccc1C3=O)N(C)C (centres undefined) | 2200 nM
4 | CCN(CC)CCOc1cc2oc3c(c2cc1Cl)C(=O)c1cccnc1C3=O | 130 nM
5 | CCN(CC)CCOc1cc2oc3c(c2cc1Cl)C(=O)c1ccccc1C3=O | 1520 nM
6 | CC(CN(C)C)Oc1cc2oc3c(c2cc1Cl)C(=O)c1cccnc1C3=O (centres undefined) | 130 nM
7 | CCN(CC)CCOc1ccc2c3c(oc2c1)C(=O)c1ccccc1C3=O | 1680 nM
8 | CC(CN(C)C)Oc1cc2oc3c(c2cc1Cl)C(=O)c1ccccc1C3=O (centres undefined) | 420 nM
9 | CC(COc1ccc2c3c(oc2c1)C(=O)c1ncccc1C3=O)N(C)C (centres undefined) | 70 nM

Biological target: not listed separately
Assay: Inhibition of human topoisomerase 2 […]

Row | Structure (SMILES) | IC50
10 | CCN(CC)CCOc1ccc2c3c(oc2c1)C(=O)c1ncccc1C3=O | 680 nM
11 | CC(COc1ccc2c3c(oc2c1)C(=O)c1ccccc1C3=O)N(C)C (centres undefined) | 1190 nM

Tested on: SK-MEL-2
Assay: Cytotoxicity against human SK-MEL-2 cells by SRB assay
Type: functional, cell-based

Row | Structure (SMILES) | IC50
12 | CCN(CC)CCOc1ccc2c3c(oc2c1)C(=O)c1ncccc1C3=O | 160 nM
13 | CC(C)N(CCOc1cc2oc3c(c2cc1Cl)C(=O)c1cccnc1C3=O)C(C)C | 730 nM
14 | CC(COc1ccc2c3c(oc2c1)C(=O)c1ccccc1C3=O)N(C)C (centres undefined) | 2150 nM
15 | CCN(CC)CCOc1cc2oc3c(c2cc1Cl)C(=O)c1cccnc1C3=O | 240 nM
16 | CCN(CC)CCOc1cc2oc3c(c2cc1Cl)C(=O)c1ccccc1C3=O | 5730 nM
17 | CC(CN(C)C)Oc1cc2oc3c(c2cc1Cl)C(=O)c1cccnc1C3=O (centres undefined) | 150 nM
18 | CCN(CC)CCOc1ccc2c3c(oc2c1)C(=O)c1ccccc1C3=O | > 20000 nM
19 | CC(CN(C)C)Oc1cc2oc3c(c2cc1Cl)C(=O)c1ccccc1C3=O (centres undefined) | 340 nM
20 | CC(COc1ccc2c3c(oc2c1)C(=O)c1ncccc1C3=O)N(C)C (centres undefined) | 90 nM

Tested on: SNU-638
Assay: Cytotoxicity against human SNU638 cells by SRB assay
Type: functional, cell-based

Row | Structure (SMILES) | IC50
21 | CCN(CC)CCOc1ccc2c3c(oc2c1)C(=O)c1ncccc1C3=O | 140 nM
22 | CC(C)N(CCOc1cc2oc3c(c2cc1Cl)C(=O)c1cccnc1C3=O)C(C)C | 530 nM
23 | CC(COc1ccc2c3c(oc2c1)C(=O)c1ccccc1C3=O)N(C)C (centres undefined) | 840 nM
24 | CCN(CC)CCOc1cc2oc3c(c2cc1Cl)C(=O)c1cccnc1C3=O | 140 nM
25 | CCN(CC)CCOc1cc2oc3c(c2cc1Cl)C(=O)c1ccccc1C3=O | 2770 nM
26 | CC(CN(C)C)Oc1cc2oc3c(c2cc1Cl)C(=O)c1cccnc1C3=O (centres undefined) | 100 nM
27 | CCN(CC)CCOc1ccc2c3c(oc2c1)C(=O)c1ccccc1C3=O | 3110 nM
28 | CC(CN(C)C)Oc1cc2oc3c(c2cc1Cl)C(=O)c1ccccc1C3=O (centres undefined) | 100 nM
29 | CC(COc1ccc2c3c(oc2c1)C(=O)c1ncccc1C3=O)N(C)C (centres undefined) | 110 nM

Biological target: T1, DNA topoisomerase 1 (Homo sapiens) (UniProt P11387)
T1 sequence (whole entry): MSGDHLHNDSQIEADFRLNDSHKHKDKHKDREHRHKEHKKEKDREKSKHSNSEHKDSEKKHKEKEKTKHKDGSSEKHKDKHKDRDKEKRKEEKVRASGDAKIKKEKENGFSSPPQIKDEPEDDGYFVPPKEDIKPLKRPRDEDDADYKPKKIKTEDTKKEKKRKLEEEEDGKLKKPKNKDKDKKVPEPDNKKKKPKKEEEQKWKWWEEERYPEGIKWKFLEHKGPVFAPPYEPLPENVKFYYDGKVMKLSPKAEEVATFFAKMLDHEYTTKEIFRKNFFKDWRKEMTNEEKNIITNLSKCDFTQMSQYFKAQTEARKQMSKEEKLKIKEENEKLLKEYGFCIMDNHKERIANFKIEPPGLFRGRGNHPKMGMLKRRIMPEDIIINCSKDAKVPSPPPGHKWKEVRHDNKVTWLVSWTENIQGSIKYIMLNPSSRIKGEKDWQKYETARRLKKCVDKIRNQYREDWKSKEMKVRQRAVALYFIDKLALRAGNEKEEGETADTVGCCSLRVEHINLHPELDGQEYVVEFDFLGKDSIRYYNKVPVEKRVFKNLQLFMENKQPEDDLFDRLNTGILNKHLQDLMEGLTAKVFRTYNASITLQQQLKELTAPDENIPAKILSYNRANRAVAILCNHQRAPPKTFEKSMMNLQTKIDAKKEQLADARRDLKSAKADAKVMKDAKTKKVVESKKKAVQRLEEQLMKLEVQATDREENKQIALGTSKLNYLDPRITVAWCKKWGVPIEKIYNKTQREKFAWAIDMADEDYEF
Assay: Inhibition of human topoisomerase 1-mediated DNA relaxation activity at 5 uM after 10 mins relative to control

Row | Structure (SMILES) | inhibition
30 | CCN(CC)CCOc1ccc2c3c(oc2c1)C(=O)c1ncccc1C3=O | 0%
31 | CC(C)N(CCOc1cc2oc3c(c2cc1Cl)C(=O)c1cccnc1C3=O)C(C)C | 0%
32 | CC(COc1ccc2c3c(oc2c1)C(=O)c1ccccc1C3=O)N(C)C (centres undefined) | 14%
33 | CCN(CC)CCOc1cc2oc3c(c2cc1Cl)C(=O)c1cccnc1C3=O | 0%
34 | CCN(CC)CCOc1cc2oc3c(c2cc1Cl)C(=O)c1ccccc1C3=O | 19%
35 | CC(CN(C)C)Oc1cc2oc3c(c2cc1Cl)C(=O)c1cccnc1C3=O (centres undefined) | 0%
36 | CCN(CC)CCOc1ccc2c3c(oc2c1)C(=O)c1ccccc1C3=O | 12%
37 | CC(CN(C)C)Oc1cc2oc3c(c2cc1Cl)C(=O)c1ccccc1C3=O (centres undefined) | 6%
38 | CC(COc1ccc2c3c(oc2c1)C(=O)c1ncccc1C3=O)N(C)C (centres undefined) | 0%

Tested on: A549
Assay: Cytotoxicity against human A549 cells by SRB assay
Type: functional, cell-based

Row | Structure (SMILES) | IC50
39 | CCN(CC)CCOc1ccc2c3c(oc2c1)C(=O)c1ncccc1C3=O | 50 nM
40 | CC(C)N(CCOc1cc2oc3c(c2cc1Cl)C(=O)c1cccnc1C3=O)C(C)C | 180 nM
41 | CC(COc1ccc2c3c(oc2c1)C(=O)c1ccccc1C3=O)N(C)C (centres undefined) | 210 nM
42 | CCN(CC)CCOc1cc2oc3c(c2cc1Cl)C(=O)c1cccnc1C3=O | 90 nM
43 | CCN(CC)CCOc1cc2oc3c(c2cc1Cl)C(=O)c1ccccc1C3=O | 1590 nM
44 | CC(CN(C)C)Oc1cc2oc3c(c2cc1Cl)C(=O)c1cccnc1C3=O (centres undefined) | 100 nM
45 | CCN(CC)CCOc1ccc2c3c(oc2c1)C(=O)c1ccccc1C3=O | 1090 nM
46 | CC(CN(C)C)Oc1cc2oc3c(c2cc1Cl)C(=O)c1ccccc1C3=O (centres undefined) | 620 nM
47 | CC(COc1ccc2c3c(oc2c1)C(=O)c1ncccc1C3=O)N(C)C (centres undefined) | 20 nM

Biological target: T2, DNA topoisomerase 1 (Homo sapiens, UniProt P11387)
T2 sequence (P11387 whole entry): T1 sequence (whole entry)
Assay: Inhibition of human topoisomerase 1 […]

Row | Structure (SMILES) | IC50
48 | CCN(CC)CCOc1ccc2c3c(oc2c1)C(=O)c1ncccc1C3=O | 64300 nM
49 | CC(COc1ccc2c3c(oc2c1)C(=O)c1ccccc1C3=O)N(C)C (centres undefined) | 42000 nM

Species on record: Homo sapiens
Assay: Inhibition of human topoisomerase 2-mediated KDNA decatenation activity at 5 uM after 10 mins relative to control

Row | Structure (SMILES) | inhibition
50 | CCN(CC)CCOc1ccc2c3c(oc2c1)C(=O)c1ncccc1C3=O | 100%
51 | CC(C)N(CCOc1cc2oc3c(c2cc1Cl)C(=O)c1cccnc1C3=O)C(C)C | 35%
52 | CC(COc1ccc2c3c(oc2c1)C(=O)c1ccccc1C3=O)N(C)C (centres undefined) | 100%
53 | CCN(CC)CCOc1cc2oc3c(c2cc1Cl)C(=O)c1cccnc1C3=O | 47%
54 | CCN(CC)CCOc1cc2oc3c(c2cc1Cl)C(=O)c1ccccc1C3=O | 50%
55 | CC(CN(C)C)Oc1cc2oc3c(c2cc1Cl)C(=O)c1cccnc1C3=O (centres undefined) | 11%
56 | CCN(CC)CCOc1ccc2c3c(oc2c1)C(=O)c1ccccc1C3=O | 91%
57 | CC(CN(C)C)Oc1cc2oc3c(c2cc1Cl)C(=O)c1ccccc1C3=O (centres undefined) | 88%
58 | CC(COc1ccc2c3c(oc2c1)C(=O)c1ncccc1C3=O)N(C)C (centres undefined) | 67%

Tested on: HT-1080
Assay: Cytotoxicity against human HT1080 cells by SRB assay
Type: functional, cell-based

Row | Structure (SMILES) | IC50
59 | CCN(CC)CCOc1ccc2c3c(oc2c1)C(=O)c1ncccc1C3=O | 70 nM
60 | CC(C)N(CCOc1cc2oc3c(c2cc1Cl)C(=O)c1cccnc1C3=O)C(C)C | 220 nM
61 | CC(COc1ccc2c3c(oc2c1)C(=O)c1ccccc1C3=O)N(C)C (centres undefined) | 340 nM
62 | CCN(CC)CCOc1cc2oc3c(c2cc1Cl)C(=O)c1cccnc1C3=O | 150 nM
63 | CCN(CC)CCOc1cc2oc3c(c2cc1Cl)C(=O)c1ccccc1C3=O | 2730 nM
64 | CC(CN(C)C)Oc1cc2oc3c(c2cc1Cl)C(=O)c1cccnc1C3=O (centres undefined) | 100 nM
65 | CCN(CC)CCOc1ccc2c3c(oc2c1)C(=O)c1ccccc1C3=O | 2190 nM
66 | CC(CN(C)C)Oc1cc2oc3c(c2cc1Cl)C(=O)c1ccccc1C3=O (centres undefined) | 490 nM
67 | CC(COc1ccc2c3c(oc2c1)C(=O)c1ncccc1C3=O)N(C)C (centres undefined) | 60 nM

Tested on: SK-OV-3
Assay: Cytotoxicity against human SK-OV-3 cells by SRB assay
Type: functional, cell-based

Row | Structure (SMILES) | IC50
68 | CCN(CC)CCOc1ccc2c3c(oc2c1)C(=O)c1ncccc1C3=O | 270 nM
69 | CC(C)N(CCOc1cc2oc3c(c2cc1Cl)C(=O)c1cccnc1C3=O)C(C)C | 750 nM
70 | CC(COc1ccc2c3c(oc2c1)C(=O)c1ccccc1C3=O)N(C)C (centres undefined) | 19000 nM
71 | CCN(CC)CCOc1cc2oc3c(c2cc1Cl)C(=O)c1cccnc1C3=O | 250 nM
72 | CCN(CC)CCOc1cc2oc3c(c2cc1Cl)C(=O)c1ccccc1C3=O | > 20000 nM
73 | CC(CN(C)C)Oc1cc2oc3c(c2cc1Cl)C(=O)c1cccnc1C3=O (centres undefined) | 150 nM
74 | CCN(CC)CCOc1ccc2c3c(oc2c1)C(=O)c1ccccc1C3=O | > 20000 nM
75 | CC(CN(C)C)Oc1cc2oc3c(c2cc1Cl)C(=O)c1ccccc1C3=O (centres undefined) | 550 nM
76 | CC(COc1ccc2c3c(oc2c1)C(=O)c1ncccc1C3=O)N(C)C (centres undefined) | 80 nM

Tested on: XF498
Assay: Cytotoxicity against human XF498 cells by SRB assay
Type: functional, cell-based

Row | Structure (SMILES) | IC50
77 | CCN(CC)CCOc1ccc2c3c(oc2c1)C(=O)c1ncccc1C3=O | 140 nM
78 | CC(C)N(CCOc1cc2oc3c(c2cc1Cl)C(=O)c1cccnc1C3=O)C(C)C | 910 nM
79 | CC(COc1ccc2c3c(oc2c1)C(=O)c1ccccc1C3=O)N(C)C (centres undefined) | 4690 nM
80 | CCN(CC)CCOc1cc2oc3c(c2cc1Cl)C(=O)c1cccnc1C3=O | 400 nM
81 | CCN(CC)CCOc1cc2oc3c(c2cc1Cl)C(=O)c1ccccc1C3=O | > 20000 nM
82 | CC(CN(C)C)Oc1cc2oc3c(c2cc1Cl)C(=O)c1cccnc1C3=O (centres undefined) | 170 nM
83 | CCN(CC)CCOc1ccc2c3c(oc2c1)C(=O)c1ccccc1C3=O | > 20000 nM
84 | CC(CN(C)C)Oc1cc2oc3c(c2cc1Cl)C(=O)c1ccccc1C3=O (centres undefined) | 550 nM
85 | CC(COc1ccc2c3c(oc2c1)C(=O)c1ncccc1C3=O)N(C)C (centres undefined) | 100 nM

Tested on: HL-60
Assay: Cytotoxicity against human HL60 cells by SRB assay
Type: functional, cell-based

Row | Structure (SMILES) | IC50
86 | CCN(CC)CCOc1ccc2c3c(oc2c1)C(=O)c1ncccc1C3=O | 250 nM
87 | CC(C)N(CCOc1cc2oc3c(c2cc1Cl)C(=O)c1cccnc1C3=O)C(C)C | 700 nM
88 | CC(COc1ccc2c3c(oc2c1)C(=O)c1ccccc1C3=O)N(C)C (centres undefined) | 390 nM
89 | CCN(CC)CCOc1cc2oc3c(c2cc1Cl)C(=O)c1cccnc1C3=O | 310 nM
90 | CCN(CC)CCOc1cc2oc3c(c2cc1Cl)C(=O)c1ccccc1C3=O | 2270 nM
91 | CC(CN(C)C)Oc1cc2oc3c(c2cc1Cl)C(=O)c1cccnc1C3=O (centres undefined) | 60 nM
92 | CCN(CC)CCOc1ccc2c3c(oc2c1)C(=O)c1ccccc1C3=O | 650 nM
93 | CC(CN(C)C)Oc1cc2oc3c(c2cc1Cl)C(=O)c1ccccc1C3=O (centres undefined) | 670 nM
94 | CC(COc1ccc2c3c(oc2c1)C(=O)c1ncccc1C3=O)N(C)C (centres undefined) | 180 nM
